# Experiments:
# [1] = tested on: Vascular smooth muscle cells derived from rat arota; test: Imaging of nitric oxide produced by vascular smooth muscle cells; type: cell-based
# Protocol: The normal lines represent fluorescence intensity of each cell and bold lines represent the averages thereof.
# Vascular smooth muscle cells derived from rat arota were cultured in a glass bottom dish, and stimulated with LPS (12.5 μg/ml), […] (150 U/ml), IL-1β (25 U/ml) and TNF-α (30 ng/ml) to induce a nitric oxide synthase. The culture was continued for about 12 hours, and then the culture medium was changed to Krebs-Ringer-phosphate buffer (KRP) in which DAR-1EE was dissolved (Example 2, 10 μM) to allow uptake of […] by the cells. The cells were cultured at 37° C. for 1 hour, and washed, and the culture medium was changed to KRP in which L-Arg or L-NMMA was dissolved. Changes in intracellular fluorescence with time was observed under a fluorescence microscope (Ex. 530-560 nm, Em. 550-610 nm, magnification: ×20).
# [2] = Changes in sensitivity (absorbance, fluorescence intensity) at varying pHs; type: physicochemical; details: about 1 μM in 78 mM phosphate buffer, neutral to weakly acidic, approximately pH 4; Ex. 565 nm-Em. 580 nm
# Protocol: DAR-1T was dissolved in purified water to prepare a solution of a concentration of 100 μM. The solution was added to phosphate buffer (78 mM) adjusted to each pH at a final concentration of about 1 μM, and absorbance and fluorescence intensity were measured. The measurement wavelengths of fluorescence were set to Ex. 565 nm-Em. 580 nm. In the figure, (a) represent the results of the absorptiometric measurement and (b) represents the results of fluorescence intensity measurement.
# [3] = Fluorescence maximum wavelengths; type: physicochemical
# From the text: Maximum wavelengths: Ex. 565 nm-Em. 580 nm
# [4] = buffer, pH 7.4; cited from earlier work
structure (smiles),measurement,setting,value
"CCOC(=O)c1c(-c2c3ccc(=[N+](CC)CC)cc-3oc3cc(N(CC)CC)ccc23)ccc(N)c1N [DAR-1EE, [9-(3,4-diamino-2-ethoxycarbonylphenyl)-6-diethylamino-3H-xanthen-3-ylidene]diethyliminium]","intracellular fluorescence intensity with time, nitric oxide producing cells","[1]; 10 μM DAR-1EE loaded 1 hour at 37° C., stimulated cells (LPS, INF, IL-1β, TNF-α), 1 mM L-Arg",Fluorescence intensity increased with time
same,"intracellular fluorescence intensity with time, cells producing no nitric oxide (non-stimulated)","[1]; 10 μM DAR-1EE loaded, non-stimulated cells, 1 mM L-Arg",substantially no change in fluorescence intensity
same,"intracellular fluorescence intensity with time, cells added with the NOS inhibitor","[1]; 10 μM DAR-1EE loaded, stimulated cells, 1 mM L-Arg+10 mM NMMA",substantially no change in fluorescence intensity
same,cellular uptake and intracellular hydrolysis,"[1]; 10 μM in KRP, 37° C., 1 hour",uptaken into the cells and hydrolyzed
"CCN(CC)c1ccc2c(-c3ccc4nn[nH]c4c3C(=O)O)c3ccc(=[N+](CC)CC)cc-3oc2c1 [DAR-1T, [9-(7-carboxybenzotriazol-6-yl)-6-diethylamino-3H-xanthen-3-ylidene]diethyliminium]",fluorescence intensity as a function of pH,[2],no changes in fluorescence intensity
same,Maximum wavelength Em.,[3]; emission,580 nm
same,Maximum wavelength Ex.,[3]; excitation,565 nm
CCNCCN(CC)N(O)N=O [NOC-12],half life,[4],5.45 h

# Source: US6469051B2, “Diaminorhodamine derivative” (priority 1997, dated 2002)
